Experiments:
Type in all cases: cell-based
Conditions in all cases: ACV 100 μmol/l, MOI 0.01, titer 24 hpi
[1] = test system: HSV-1 strain ANGpath; test: In vitro antiviral activity, treatment of Vero cells, plaque assay
Experimental: (§1) • A. Vero cells were seeded in 24-well plates and treated with dilutions of the ECAS 2 Dil.1:1 and Dil.1:2, either: • I. 24 hours before the infection; • II. 2 hours before the infection; • III. during the infection; • IV. 2 hours post infection; or • V. 6 hours post infection.
(§2) The cells were infected with the HSV-1 strains Kupka and ANGpath at a multiplicity of infection (MOI) of 0.01. The cells were collected 24 hours post infection (hpi) and the virus titer was determined by plaque assay. Briefly, the samples were serially diluted and plated onto one-day Vero cell-monolayers in 24- or 6-well tissue plates in duplicates. Afterwards, the cells were overlaid with 1% methylcellulose in normal growth media. 5 days post infection, the cells were fixed and stained with 2% crystal violet in 20% ethanol, and the individual plaques were counted to determine the virus titer in each sample. Samples without treatment (Mock, negative control) and samples treated with ACV (Acyclovir, 100 μmol/l, reference control) were handled in the same manner. The test was performed in two independent experiments, where each of the samples was tested in parallel wells. • B. The HSV-1 strains Kupka and ANGpath, were incubated at a MOI of 0.01 with dilutions of the ECAS 2 either Dil.1:1 or Dil.1:2, in a final volume of 100 μl for either: • I. 12 hours; • II. 8 hours; • III. 6 hours; or • IV. 2 hours.

[2] = test system: HSV-1 strain Kupka; test: as above
Experimental: as §1, §2

[3] = test system: HSV-1 strain ANGpath; test: In vitro antiviral activity, pre-incubation of virus before infection of Vero cells, plaque assay
Experimental: as §2
(§3) Then cells, which had been seeded in 24-well plates 24 hours before the infection, were infected with the above mentioned pre-incubated viruses. 24 hpi the cells were collected and the virus titer was determined by a plaque assay, as described above. Samples without treatment (Mock, negative control) and samples treated with Acyclovir (100 μmol/l as reference control) were handled in the same manner. The test was performed in two independent experiments, where each of the samples was tested in parallel wells.

[4] = test system: HSV-1 strain Kupka; test: as above
Experimental: as §2, §3

[5] = cells treated 2 h before infection
[6] = cells treated 24 h before infection
[7] = virus incubated 2 h before infection
[8] = virus incubated 6 h before infection
[9] = virus incubated 8 h before infection
[10] = virus incubated 12 h before infection

Nc1nc2c(ncn2COCCO)c(=O)[nH]1 [ACV, Acyclovir]
Reduction in viral titer ([1]; cells treated 2 hpi): 2.81 log10
Reduction in viral titer ([1]; cells treated 6 hpi): 2.38 log10
Reduction in viral titer [1, 5]: 0.61 log10
Reduction in viral titer [1, 6]: 0.54 log10
Reduction in viral titer ([1]; cells treated during infection): 2.45 log10
Reduction in viral titer ([2]; cells treated 2 hpi): 4.52 log10
Reduction in viral titer ([2]; cells treated 6 hpi): 3.43 log10
Reduction in viral titer [2, 5]: 1.96 log10
Reduction in viral titer [2, 6]: 1.96 log10
Reduction in viral titer ([2]; cells treated during infection): 3.69 log10
Reduction in viral titer [3, 7]: 2.85 log10
Reduction in viral titer [3, 8]: 2.59 log10
Reduction in viral titer [3, 9]: 2.97 log10
Reduction in viral titer [3, 10]: 2.56 log10
Reduction in viral titer [4, 7]: 4.62 log10
Reduction in viral titer [4, 8]: 3.55 log10
Reduction in viral titer [4, 9]: 5.17 log10
Reduction in viral titer [4, 10]: 3.15 log10
